According to patent publication US7332612B2 (Teva Pharmaceutical Industries Ltd., priority 2001, dated 2008):

Excerpt: To obtain Form II in high chemical purity the starting material should also be chemically pure.

Structure (SMILES): CCCCc1nc(Cl)c(CO)n1Cc1ccc(-c2ccccc2-c2nnn[nH]2)cc1.[K] [losartan potassium]
- solubility in methanol (methanol, complete dissolution at room temperature): highly soluble
- solubility in xylene (xylene, either crystalline or amorphous): low solubility
